Reference: the CheMixHub viscosity set

Test: xn = mol fraction of the nth substance listed

CC(=O)N(C)C + CCCCO
viscosity [mPa·s]
Details | 298.15 K | 303.15 K | 313.15 K
100 kPa, x1 = 0.0565 | 2.252 | – | 1.598
100 kPa, x1 = 0.1063 | 2.049 | – | 1.477
100 kPa, x1 = 0.2094 | 1.716 | – | 1.287
100 kPa, x1 = 0.3134 | 1.503 | – | 1.15
100 kPa, x1 = 0.4106 | 1.361 | – | 1.063
100 kPa, x1 = 0.5083 | 1.263 | – | 0.9979
100 kPa, x1 = 0.6042 | 1.179 | – | 0.9502
100 kPa, x1 = 0.7096 | 1.119 | – | 0.9082
100 kPa, x1 = 0.8046 | 1.061 | – | 0.8651
100 kPa, x1 = 0.9078 | 0.9922 | – | 0.8128
100 kPa, x1 = 0.9575 | 0.9601 | – | 0.7894
101 kPa, x1 = 0.0968 | – | 1.862 | –
101 kPa, x1 = 0.1997 | – | 1.585 | –
101 kPa, x1 = 0.2976 | – | 1.43 | –
101 kPa, x1 = 0.4 | – | 1.281 | –
101 kPa, x1 = 0.4956 | – | 1.181 | –
101 kPa, x1 = 0.599 | – | 1.097 | –
101 kPa, x1 = 0.6978 | – | 1.029 | –
101 kPa, x1 = 0.7867 | – | 0.975 | –
101 kPa, x1 = 0.9006 | – | 0.917 | –

CC(=O)N1CCOCC1 + CCCCO
viscosity [mPa·s], 101 kPa
Details | 293.15 K | 303.15 K | 313.15 K | 323.15 K
x1 = 0.0555 | 4.367 | 3.576 | 2.739 | 1.957
x1 = 0.1321 | 5.668 | 4.813 | 3.879 | 3.051
x1 = 0.2165 | 6.805 | 5.881 | 5.042 | 4.16
x1 = 0.2844 | 7.59 | 6.613 | 5.581 | 4.657
x1 = 0.3126 | 7.757 | 6.756 | 5.6 | 4.662
x1 = 0.4042 | 8.369 | 7.294 | 6.023 | 5.03
x1 = 0.4673 | 8.697 | 7.57 | 6.22 | 5.191
x1 = 0.5033 | 8.878 | 7.734 | 6.31 | 5.257
x1 = 0.5562 | 9.001 | 7.801 | 6.341 | 5.256
x1 = 0.6237 | 9.088 | 7.833 | 6.29 | 5.164
x1 = 0.6431 | 8.989 | 7.719 | 6.152 | 5.014
x1 = 0.6903 | 9.041 | 7.732 | 6.105 | 4.937
x1 = 0.7439 | 8.864 | 7.512 | 5.819 | 4.62
x1 = 0.7911 | 8.713 | 7.322 | 5.569 | 4.342
x1 = 0.8624 | 8.88 | 7.431 | 5.591 | 4.32
x1 = 0.9222 | 8.663 | 7.164 | 5.249 | 3.943
x1 = 0.9785 | 8.737 | 7.193 | 5.209 | 3.868

CCC1CCCCC1 + CCCCO
viscosity [mPa·s], 100 kPa
Details | x2 = 0.1001 | x2 = 0.2 | x2 = 0.3001 | x2 = 0.4 | x2 = 0.4999 | x2 = 0.5997 | x2 = 0.7 | x2 = 0.8 | x2 = 0.9
293.15 K | 0.867 | 0.908 | 0.984 | 1.1 | 1.254 | 1.451 | 1.718 | 2.051 | 2.436
298.15 K | 0.813 | 0.849 | 0.912 | 1.007 | 1.142 | 1.314 | 1.549 | 1.817 | 2.157
303.15 K | 0.758 | 0.793 | 0.851 | 0.929 | 1.045 | 1.202 | 1.399 | 1.625 | 1.911
308.15 K | 0.716 | 0.744 | 0.794 | 0.861 | 0.958 | 1.08 | 1.25 | 1.465 | 1.711
313.15 K | 0.666 | 0.692 | 0.729 | 0.791 | 0.871 | 0.98 | 1.121 | 1.303 | 1.515
318.15 K | 0.628 | 0.646 | 0.681 | 0.734 | 0.803 | 0.894 | 1.018 | 1.174 | 1.351
323.15 K | 0.584 | 0.604 | 0.633 | 0.678 | 0.737 | 0.814 | 0.924 | 1.058 | 1.219

CCCCCCCCCO + CCCCO
viscosity [mPa·s]
Details | 293.15 K | 298.15 K | 308.15 K | 318.15 K
101 kPa, x2 = 0.05 | – | 8.644 | 6.182 | 4.486
101 kPa, x2 = 0.1 | – | 8.219 | 5.878 | 4.303
101 kPa, x2 = 0.15 | – | 7.816 | 5.598 | 4.121
101 kPa, x2 = 0.2 | – | 7.431 | 5.336 | 3.941
101 kPa, x2 = 0.25 | – | 7.062 | 5.089 | 3.764
101 kPa, x2 = 0.3 | – | 6.704 | 4.852 | 3.589
101 kPa, x2 = 0.35 | – | 6.356 | 4.623 | 3.418
101 kPa, x2 = 0.4 | – | 6.016 | 4.398 | 3.251
101 kPa, x2 = 0.45 | – | 5.681 | 4.177 | 3.088
101 kPa, x2 = 0.5 | – | 5.353 | 3.957 | 2.929
101 kPa, x2 = 0.55 | – | 5.029 | 3.738 | 2.774
101 kPa, x2 = 0.6 | – | 4.71 | 3.52 | 2.623
101 kPa, x2 = 0.65 | – | 4.397 | 3.303 | 2.477
101 kPa, x2 = 0.7 | – | 4.091 | 3.088 | 2.335
101 kPa, x2 = 0.75 | – | 3.793 | 2.877 | 2.198
101 kPa, x2 = 0.8 | – | 3.506 | 2.672 | 2.064
101 kPa, x2 = 0.85 | – | 3.234 | 2.476 | 1.933
101 kPa, x2 = 0.9 | – | 2.977 | 2.292 | 1.806
101 kPa, x2 = 0.95 | – | 2.742 | 2.125 | 1.681
101.33 kPa, x2 = 0.1608 | 9.868 | – | – | –
101.33 kPa, x2 = 0.2186 | – | 7.719 | – | –
101.33 kPa, x2 = 0.3832 | 7.621 | – | – | –
101.33 kPa, x2 = 0.4166 | – | 6.168 | – | –
101.33 kPa, x2 = 0.5129 | – | 5.48 | – | –
101.33 kPa, x2 = 0.5372 | 6.237 | – | – | –
101.33 kPa, x2 = 0.6368 | – | 4.634 | – | –
101.33 kPa, x2 = 0.6674 | 5.169 | – | – | –
101.33 kPa, x2 = 0.7995 | 4.296 | – | – | –
101.33 kPa, x2 = 0.8253 | – | 3.486 | – | –
101.33 kPa, x2 = 0.8991 | 3.529 | – | – | –
101.33 kPa, x2 = 0.9103 | – | 3.019 | – | –

CC(=O)N(C)C + CCCCn1cc[n+](C)c1.F[B-](F)(F)F
101.33 kPa
Details | viscosity [mPa·s]
293.15 K, x2 = 0.8488 | 74.2
293.15 K, x2 = 0.9175 | 95.64
298.15 K, x2 = 0.9175 | 80.5
308.15 K, x2 = 0.437 | 7.88
323.15 K, x2 = 0.7419 | 9.78
